Measurements published in patent US9828350B2, “5,6-dihydro-2H-[1,4]oxazin-3-yl-amine derivatives useful as inhibitors of beta-secretase (BACE)” (Janssen Pharmaceutica NV, priority 2010, dated 2017).
Counter-ions that a name gives are not always drawn.

Key:
[1] = biological target: recombinant BACE1 protein (Homo sapiens, UniProt P56817); test: Biochemical FRET based assay; settings: recombinant BACE1 1 μg/ml, 120 minutes at room temperature, pH 5.0; for IC50: read-out: Biochemical FRET based assay pIC50 (converted)
Sequence of recombinant BACE1 protein (P56817 46-501): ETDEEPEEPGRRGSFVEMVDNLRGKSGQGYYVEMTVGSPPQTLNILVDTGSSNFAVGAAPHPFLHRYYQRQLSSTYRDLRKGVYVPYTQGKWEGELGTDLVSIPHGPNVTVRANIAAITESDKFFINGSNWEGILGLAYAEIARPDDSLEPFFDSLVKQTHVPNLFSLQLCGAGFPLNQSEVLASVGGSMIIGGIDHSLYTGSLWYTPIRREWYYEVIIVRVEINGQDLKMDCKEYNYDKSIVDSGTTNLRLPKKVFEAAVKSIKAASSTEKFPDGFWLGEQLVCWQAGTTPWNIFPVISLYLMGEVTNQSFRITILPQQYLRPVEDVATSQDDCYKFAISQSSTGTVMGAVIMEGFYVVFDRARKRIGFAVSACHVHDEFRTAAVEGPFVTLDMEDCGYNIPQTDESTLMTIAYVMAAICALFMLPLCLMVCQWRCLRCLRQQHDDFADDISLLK
Summary of the method: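 Proteolysis was read as the rise in donor fluorescence (320 nm excitation, 405 nm emission) from T0 to T120, expressed in RFU. The reaction ran 120 minutes at room temperature at pH 5.0 in citrate buffer with 4% DMSO, using […] quenched Swedish APP peptide and 1 μg/ml BACE1.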

Abeta 1-42 = test: Cellular αLisa assay in SKNBE2 cells, Abeta 1-42; format: cell-based, human; settings: incubated for 18 hours; for IC50: Homo sapiens, SKNBE2, 18 h, read-out: Cellular αLisa assay in SKNBE2 cells Abeta 42 pIC50 (converted)
Summary of the method: (§1)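 Secreted Abeta levels were measured by sandwich αLisa, pairing biotin-AbN/25 donor beads with Ab4G8 acceptor beads for total Abeta or cAb42/26 for Abeta 1-42, read at 615 nm after 650 nm excitation following 1 hour. Cells were SKNBE2 expressing wild-type hAPP695, exposed to compound for 18 hours.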

Abeta total = test: Cellular αLisa assay in SKNBE2 cells, Abeta total; format: cell-based, human; settings: incubated for 18 hours; for IC50: Homo sapiens, SKNBE2, 18 h, read-out: Cellular αLisa assay in SKNBE2 cells Abetatotal pIC50 (converted)
Summary of the method: as §1

Structure (SMILES)	melting point [°C]	IC50 [1] [nM]	IC50 (Abeta 1-42) [nM]	IC50 (Abeta total) [nM]	Cellular αLisa assay in SKNBE2 cells Abeta 42 pIC50 (Abeta 1-42)	Cellular αLisa assay in SKNBE2 cells Abetatotal pIC50 (Abeta total)	Biochemical FRET based assay pIC50 [1]
C[C@@]1(c2cccc(-c3cncnc3)c2)COC2(CC2)C(N)=N1 (as salt: fumarate) [Compound 74]	193.3						
CC1(c2cccc(-c3ccccc3)c2)COCC(N)=N1 (racemic) (as salt: TFA) [Compound 1, rac-5-biphenyl-3-yl-5-methyl-5,6-dihydro-2H-1,4-oxazin-3-amine trifluoroacetate salt]	217.2						
CC1(c2cccc(-c3cc(Cl)cc(Cl)c3)c2)COCC(N)=N1 (racemic) [Compound 2, rac-5-(3′,5′-dichlorobiphenyl-3-yl)-5-methyl-5,6-dihydro-2H-1,4-oxazin-3-amine]	197	1910	724	617			
CC1(c2cccc(NC(=O)c3ncccc3F)c2)COCC(N)=N1 (racemic) [Compound 6, rac-N-[3-(5-amino-3-methyl-3,6-dihydro-2H-1,4-oxazin-3-yl)phenyl]-3-fluoropyridine-2-carboxamide]	155.6	5130	513	457			
COc1cncc(-c2cccc(C3(C(F)(F)F)COCC(N)=N3)c2)c1 (racemic) [Compound 152, rac-5-[3-(5-methoxypyridin-3-yl)phenyl]-5-(trifluoromethyl)-5,6-dihydro-2H-1,4-oxazin-3-amine]	202.5	3890	3160	3160			
NC1=NC(c2cccc(NC(=O)c3ccc(Cl)cn3)c2)(C2CC2)COC1 (racemic) [Compound 153, rac-N-[3-(5-Amino-3-cyclopropyl-3,6-dihydro-2H-1,4-oxazin-3-yl)phenyl]-5-chloropyridine-2-carboxamide]	161.5	89.1	11.5	13.2			
CC1(c2cc(-c3cncnc3)ccc2F)N=C(N)COC1F (single isomer, unassigned) [Compound 75]	227.7	9770			5.46	5.46	
C[C@@]1(c2cccc(NC(=O)c3ccc(Cl)cn3)c2)N=C(N)CO[C@H]1F (single isomer, unassigned) [Compound 85, (S*,S*)—N-[3-(5-amino-2-fluoro-3-methyl-3,6-dihydro-2H-1,4-oxazin-3-yl)phenyl]-5-chloropyridine-2-carboxamide]	160.8	6460	871	851			
CC1(c2cccc(-c3cncnc3)c2)N=C(N)COC1F (single isomer, unassigned) [Compound 94]	115.4	> 30200			5.43	5.34	
CC1(c2cccc(NC(=O)c3ccc(Cl)cn3)c2)N=C(N)COC1(F)C(F)(F)F (single isomer, unassigned) [Compound 112]	207.3				5.68	5.71	
CC1(c2cc(NC(=O)c3ncc(Cl)cc3Cl)ccc2F)N=C(N)COC1F (single isomer, unassigned) [Compound 128]	93.3	5750			6.0	6.02	
CC1(c2cc(NC(=O)c3ncc(Cl)cc3F)ccc2F)N=C(N)COC1F (single isomer, unassigned) [Compound 130]	116.4	1910			6.47	6.48	
C[C@]1(c2cc(-c3cncnc3)c(F)cc2F)N=C(N)CO[C@@H]1F (single isomer, unassigned) [Compound 148, (R*,R*)-5-(2,4-difluoro-5-pyrimidin-5-ylphenyl)-6-fluoro-5-methyl-5,6-dihydro-2H-1,4-oxazin-3-amine]	186.2	> 30200	> 10000	> 10000			
CC1(c2cccc(NC(=O)c3ncc(Cl)cc3F)c2)N=C(N)COC1(F)C(F)(F)F (single isomer, unassigned) [Compound 172]	180.17	513			6.74	6.81	
CC1(c2cccc(NC(=O)c3ncc(Cl)cc3F)c2)N=C(N)COC1(F)C(F)(F)F (single isomer, unassigned) [Compound 174]	179.18	> 30200			<5	<5	
CC1(c2cccc(NC(=O)c3ccncn3)c2)N=C(N)COC1(F)C(F)(F)F (single isomer, unassigned) [Compound 187]	189.64	10200			5.92	5.95	
CC1(c2cccc(NC(=O)c3ccncn3)c2)N=C(N)COC1(F)C(F)(F)F (single isomer, unassigned) [Compound 189]	189.29	> 30200			<5	<5	
CC1(c2cc(-c3cncnc3)c(F)cc2F)COC2(CC2)C(N)=N1 (stereo not shown) [Compound 72]	213.1	2630	631	646			
CC1(c2cc(-c3cncnc3)c(F)cc2F)N=C(N)COC1F (stereo not shown) [Compound 84]	195.3	22900	3890	4470			
COc1cncc(-c2cccc(C3(C)N=C(N)COC3F)c2)c1 (stereo not shown) [Compound 87]	139.23				6.46	6.47	5.81
CC1(c2cccc(-c3cncnc3)c2)N=C(N)COC1F (stereo not shown) [Compound 98]	189.3	2820			6.19	6.14	
CC1(c2cccc(-c3cncnc3)c2)N=C(N)COC1F (stereo not shown) [Compound 99]	204.3	20900			5.87	5.73	
COc1cncc(-c2ccc(F)c(C3(C)N=C(N)COC3C(F)(F)F)c2)c1 (stereo not shown) [Compound 105]	196.9	1550	200	224			
C[C@]1(c2cc(-c3cncc(F)c3)c(F)cc2F)N=C(N)CO[C@@H]1C(F)(F)F [Compound 316]		1150	724	631			
C[C@]1(c2cc(NC(=O)c3cnc(OCC(F)(F)F)cn3)ccc2F)N=C(N)CO[C@]1(F)C(F)(F)F [Compound 318]		355	851	724			
C[C@]1(c2cc(NC(=O)c3cnc(OCC(F)(F)F)cn3)ccc2F)N=C(N)CO[C@@]1(F)C(F)(F)F [Compound 319]		43.7	74.1	69.2			
C[C@]1(c2cc(-c3cncc(C#N)c3)c(F)cc2F)N=C(N)CO[C@H]1C(F)(F)F [Compound 351]		2040	550	468			
